Patent US4727061A, “Pharmaceutical preparations having diuretic activity” (Rohm GmbH, priority 1984, dated 1988)

Tested on: female Sprague-Dawley rats
Assay: Natriuretic activity in anesthetized, catheterized rats under i.v. saline/fructose infusion (method of Kramer et al.)
Type: in vivo
Details: 250 micrograms of peptide per rat
Excerpt: In the test protocol employed, female Sprague-Dawley rats weighing from 206 to 250 g were used as test animals. Before the test, the rats were exposed to a normal diet and had free access to food and water. On the day of the test, the rats were anesthetized with methohexital and catheters were inserted in the aorta and the jugular vein and from there through the abdomen in the bladder.
The animals were then placed into individual cages mounted on a scale. A 0.45% saline solution with 2.5% fructose was then administered to them intravenously at a rate ranging from 33 to 62 microliters per minute so that the body weight remained constant. Two hours after the animals had recovered, 15 minute urine collection periods were initiated and continued throughout the test. The diuretic material to be tested was dissolved (at pH 7.4) in the infusion solution, which contained tris HCl as a buffer. In the case of the fractions characterized by natriuresis, 15 minute urine samples were collected until the sodium excretion had again reached the base line, and the rate of infusion was adjusted so that the body weight remained constant. The arterial blood pressure was monitored throughout the test by means of a pressure measuring apparatus (Statham P-23-Db). The sodium and potassium concentrations in serum and urine were monitored by flame photometry.
250 micrograms of the peptide substance to be tested were administered to each rat.
(2) Sodium excretion in treated rats in micromoles per minute per milligram of administered substance of formula I.
(3) Time of maximum activity (tmax) in minutes.
(4) Increase in natriuresis as quotient F=(Na^+ excretion after treatment)/(Na^+ excretion before treatment).

Gly-Gly
(3) Time of maximum activity (tmax): 1.5 to 2.5 h
(4) Increase in natriuresis as quotient F = (Na+ excretion after treatment)/(Na+ excretion before treatment): 39.8
(2) Na+ excretion in treated rats (treated rats, in the i.v. infusion solution, pH 7.4, 15 minute urine collections): 14.7 micromoles per minute per mill
(2) Q = K+/Na+ in treated rats (treated rats, urinary K+/Na+ quotient): 0.63
